Data published in patent publication US20260191974A1, “B7-H3 TARGETING LIGANDS AND METHODS OF USE” (The University of North Carolina at Chapel Hill, priority 2022, published 2026).
Where a SMILES comes first, the peptide text is derived from it. Bridges are numbered along the chain shown (N, C = ends).

Key:
biotinylated B7-H3 = target: T1, biotinylated B7-H3 (Homo sapiens, UniProt Q5ZPR3); assay: Surface Plasmon Resonance (SPR) analysis against biotinylated B7-H3; settings: biotinylated B7-H3, 25° C., 1:1 binding kinetics model, read-out: binding affinity towards B7-H3
T1 sequence (Q5ZPR3 29-534): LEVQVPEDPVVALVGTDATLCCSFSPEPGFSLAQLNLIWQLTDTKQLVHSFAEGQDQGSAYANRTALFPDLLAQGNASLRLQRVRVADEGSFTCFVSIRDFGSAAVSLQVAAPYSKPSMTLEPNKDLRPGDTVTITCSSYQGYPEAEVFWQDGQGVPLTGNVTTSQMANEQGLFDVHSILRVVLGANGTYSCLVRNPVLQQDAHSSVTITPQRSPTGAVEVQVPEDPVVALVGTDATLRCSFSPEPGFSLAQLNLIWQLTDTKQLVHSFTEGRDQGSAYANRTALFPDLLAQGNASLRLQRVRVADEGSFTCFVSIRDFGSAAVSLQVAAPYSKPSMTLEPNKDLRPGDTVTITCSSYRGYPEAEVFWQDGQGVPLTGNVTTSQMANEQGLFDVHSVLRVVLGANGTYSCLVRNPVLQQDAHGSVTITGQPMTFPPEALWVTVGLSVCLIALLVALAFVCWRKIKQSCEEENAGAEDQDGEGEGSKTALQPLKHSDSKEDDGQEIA
Description: (§1) FIGS. 4A-4G. (FIG. 4A) Selection schematic detailing the selection process for identifying binders against B7-H3. (FIG. 4B) qPCR results of the mTG mediated B7-H3 selection. (FIG. 4C) B7-H3 selection results and complete NGS analysis of B7-H3 hits. (FIG. 4D) NGS data of the selection hits. […] Arrow indicates the peptide pursued for binding validation. (FIG. 4E) EIC ([M+2], 948.91 m/z) traces corresponding to the product of the mTG reaction with linear B1.1 peptide and the synthetic lactam, disulfide peptide. (FIG. 4F) Surface Plasmon Resonance (SPR) analysis of the selected peptide (B1.1), the Met9Nle variant, and the linear variant. […] The selected B1.1 and the Met9Nle variant were analyzed at analyte concentrations of 7.5, 15, 30, 60, 120 nM. The linear variant was analyzed at analyte concentrations of 50, 100, 200, 400, 800 nM. […] (FIG. 4G) Individual SPR curves. Fitted curve and raw data are shown.
(§2) Surface Plasmon Resonance (SPR) analysis. Binding kinetics between our selected peptide (and variants) and biotinylated B7-H3 (B7-H3b) were assessed through SPR analysis using a BIACORE 8K SPR system (GE Healthcare). The running buffer was 1×PBS pH7.5, 0.05% TWEEN® 20 and all analysis was carried out at 25° C. B7-H3b was loaded onto a NeutrAvidin SPR Chip (Series S Sensor Chip NA, 29407997, Cytiva) at a flow rate of […] to a surface density of 1000-1500 response units. Analyte was then injected over a series of five concentrations and quantified by BIACORE single-cycle kinetics method. For our selected peptide (B1.1) and the Met9Nle variant a range of 7.5, 15, 30, 60, 120 nM were run. For the linear variant concentrations of 50, 100, 200, 400, 800 nM were run. Binding sonograms were generated using a standard 1:1 binding kinetics model and kinetics constants determined using standard BIACORE evaluation software.

B7-H3 [1] = assay: kd (s^-1)
Description: (§3) Table printed on a drawing sheet, FIG. 4F
Head of the field: kd (s^-1)
as §1, with “The patent's description of the figure: FIGS.” for “FIGS.”
(§4) First copying reader's note: Brackets drawn on the SELECTED and MET9NLE sequences join C to C (above) and Q to K (below), marking a bicyclic peptide; LINEAR has no brackets.
(§5) Where the first naming reader finds the target: passage: Binding affinities were assessed for each peptide by surface plasmon resonance (SPR) against biotinylated B7-H3.

B7-H3 [2] = assay: ka (M^-1s^-1)
Description: as §3
Head of the field: ka (M^-1s^-1)
as §1, with “The patent's description of the figure: FIGS.” for “FIGS.”
as §4, §5

murine B7-H3 (mB7-H3) = target: T2, murine B7-H3 (mB7-H3) (Mus musculus, UniProt Q8VE98); assay: SPR binding to murine B7-H3
T2 sequence (Q8VE98 29-316): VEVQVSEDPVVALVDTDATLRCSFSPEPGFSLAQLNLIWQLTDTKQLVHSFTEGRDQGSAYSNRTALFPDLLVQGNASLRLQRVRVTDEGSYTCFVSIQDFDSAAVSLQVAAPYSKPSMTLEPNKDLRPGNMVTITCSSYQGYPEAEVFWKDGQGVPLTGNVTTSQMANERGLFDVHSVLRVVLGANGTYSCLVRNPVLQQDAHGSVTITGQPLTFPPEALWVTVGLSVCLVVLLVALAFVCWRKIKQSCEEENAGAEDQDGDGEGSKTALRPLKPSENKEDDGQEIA
Description: FIGS. 24A-24C. SPR analysis of the selected peptides B1.1 and JP5. The B1.1 variant was analyzed at analyte concentrations of 7.5, 15, 30, 60, and 120 nM (FIG. 24A) and the JP5 variant was analyzed at analyte concentrations of 22.2, 66.6, 200, 600 and 1800 nM (FIG. 24B). (FIG. 24C) Binding kinetics of each peptide.
as §2
Surface plasmon resonance was used to evaluate binding of B1.1 and JP5 to both human and murine B7-H3 (FIGS. 24A-24C).

With `CSCC[C@@H]1NC(=O)[C@H](CO)NC(=O)[C@H](Cc2c[nH]cn2)NC(=O)[C@@H]2CSSC[C@H](NC(=O)[C@H]([C@@H](C)O)NC(=O)[C@H](Cc3ccc(O)cc3)NC(=O)[C@H](Cc3ccccc3)NC1=O)C(=O)N[C@H](C(=O)N[C@@H](CO)C(=O)NCC(N)=O)CCCCNC(=O)CC[C@H](NC(=O)[C@H](CC(C)C)NC(=O)[C@H](C)NC(=O)[C@H](Cc1c[nH]c3ccccc13)NC(C)=O)C(=O)N[C@@H](CC(C)C)C(=O)N2` [B1.1, acWALQLCHSMFYTCKSG] (Ac-WALELCHSMFYTCKSG-NH2; lactam 4-14; disulfide 6-13) the Kd (biotinylated B7-H3) was 0.0435 µM, the “kd (s^-1)” value (B7-H3 [1]) was 6.74e^-3 and the “ka (M^-1s^-1)” value (B7-H3 [2]) was 1.55e^5. The KD (murine B7-H3 (mB7-H3)) was “binds to murine B7-H3”.
